Literature values, collected in patent US20080260683A1, “Rodenticide” (priority 2004, published 2008).

Row | Structure (SMILES) | solubility in water
1 | O=c1oc2ccccc2c(O)c1C1CC(c2ccc(-c3ccc(Br)cc3)cc2)Cc2ccccc21 (stereo not shown) [Brodifacoum, brodifacoum] | insoluble or weakly soluble in water
2 | O=c1oc2ccccc2c(O)c1C(CC(O)c1ccc(-c2ccc(Br)cc2)cc1)c1ccccc1 (stereo not shown) [bromadiolone] | insoluble or weakly soluble in water
3 | O=c1sc2ccccc2c(O)c1C1CC(c2ccc(-c3ccc(Br)cc3)cc2)Cc2ccccc21 (stereo not shown) [difethialone] | insoluble or weakly soluble in water
4 | O=c1oc2ccccc2c(O)c1C1CC(c2ccc(OCc3ccc(C(F)(F)F)cc3)cc2)Cc2ccccc21 (stereo not shown) [flocoumafen] | insoluble or weakly soluble in water
